From ChEMBL document CHEMBL1201861, “Genomics of Drug Sensitity in Cancer screening data, Wellcome Trust Sanger Institute”
pIC50: −log10 of the molar value.

How the values were obtained:
Assay in all cases: cells
DOHH-2 = assay type: functional, cell-based, Homo sapiens; details: Homo sapiens, DOHH-2;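 note: growth inhibition of human DOHH-2 cells, read out with a cell viability assay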
Description: SANGER: Inhibition of human DOHH-2 cell growth in a cell viability assay.

GI-1 = assay type: functional, cell-based, Homo sapiens; details: Homo sapiens, GI-1;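 note: growth inhibition of human GI-1 cells, measured with a cell viability readout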
Description: SANGER: Inhibition of human GI-1 cell growth in a cell viability assay.

NB69 = assay type: functional, cell-based, Homo sapiens; details: Homo sapiens, NB69;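 note: growth inhibition of NB69 cells, determined by a cell viability assay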
Description: SANGER: Inhibition of human NB69 cell growth in a cell viability assay.

NOS-1 = assay type: functional, cell-based, Homo sapiens; details: Homo sapiens, NOS-1;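 note: growth inhibition of the human NOS-1 cell line, read out with a cell viability assay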
Description: SANGER: Inhibition of human NOS-1 cell growth in a cell viability assay.

NTERA-2-cl-D1 = assay type: functional, cell-based, Homo sapiens; details: Homo sapiens, NTERA-2-cl-D1;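 note: inhibition of cell growth, measured with a cell viability assay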
Description: SANGER: Inhibition of human NTERA-S-cl-D1 cell growth in a cell viability assay.

OCI-AML2 = assay type: functional, cell-based, Homo sapiens; details: Homo sapiens, OCI-AML2;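 note: growth inhibition of OCI-AML2 cells, read out with a cell viability assay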
Description: SANGER: Inhibition of human OCI-AML2 cell growth in a cell viability assay.

no-11 = assay type: functional, cell-based, Homo sapiens; details: Homo sapiens;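 note: growth inhibition of human NO-11 cells, read out with a cell viability assay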
Description: SANGER: Inhibition of human no-11 cell growth in a cell viability assay.

COLO-800 = assay type: functional, cell-based, Homo sapiens; details: Homo sapiens, COLO-800;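 note: growth inhibition of COLO-800 cells, read out with a cell viability assay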
Description: SANGER: Inhibition of human COLO-800 cell growth in a cell viability assay.

COLO-824 = assay type: functional, cell-based, Homo sapiens; details: Homo sapiens, COLO-824
Description: SANGER: Inhibition of human COLO-824 cell growth in a cell viability assay.

CTB-1 = assay type: functional, cell-based, Homo sapiens; details: Homo sapiens, CTB-1
Description: SANGER: Inhibition of human CTB-1 cell growth in a cell viability assay.

CW-2 = assay type: functional, cell-based, Homo sapiens; details: Homo sapiens, CW-2;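 note: growth inhibition of CW-2 cells, read out by a cell viability assay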
Description: SANGER: Inhibition of human CW-2 cell growth in a cell viability assay.

DB = assay type: functional, cell-based, Homo sapiens; details: Homo sapiens, DB
Description: SANGER: Inhibition of human DB cell growth in a cell viability assay.

DMS-114 = assay type: functional, cell-based, Homo sapiens; details: Homo sapiens, DMS-114
EM-2 = assay type: functional, cell-based, Homo sapiens; details: Homo sapiens, EM-2;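 note: growth inhibition of EM-2 cells, read out with a cell viability assay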
Description: SANGER: Inhibition of human EM-2 cell growth in a cell viability assay.

ES7 = assay type: functional, cell-based, Homo sapiens; details: Homo sapiens, ES7;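 note: growth inhibition of cultured human ES7 cells, read out as cell viability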
Description: SANGER: Inhibition of human ES7 cell growth in a cell viability assay.

EW-1 = assay type: functional, cell-based, Homo sapiens; details: Homo sapiens, EW-1;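 note: growth inhibition of the human EW-1 cell line, read out by a cell viability assay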
Description: SANGER: Inhibition of human EW-1 cell growth in a cell viability assay.

GOTO = assay type: functional, cell-based, Homo sapiens; details: Homo sapiens, GOTO;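 note: growth inhibition of GOTO cells, read out by a cell viability assay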
Description: SANGER: Inhibition of human GOTO cell growth in a cell viability assay.

GR-ST = assay type: functional, cell-based, Homo sapiens; details: Homo sapiens, GR-ST
Description: SANGER: Inhibition of human GR-ST cell growth in a cell viability assay.

HT = assay type: functional, cell-based, Homo sapiens; details: Homo sapiens, HT
Description: SANGER: Inhibition of human HT cell growth in a cell viability assay.

IST-MES1 = assay type: functional, cell-based, Homo sapiens; details: Homo sapiens, IST-MES1;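 note: growth inhibition of IST-MES1 cells, measured with a cell viability assay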
Description: SANGER: Inhibition of human IST-MES1 cell growth in a cell viability assay.

K5 = assay type: functional, cell-based, Homo sapiens; details: Homo sapiens, K5
Description: SANGER: Inhibition of human K5 cell growth in a cell viability assay.

KINGS-1 = assay type: functional, cell-based, Homo sapiens; details: Homo sapiens, KINGS-1;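 note: cell viability assay measuring suppression of KINGS-1 cell growth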
Description: SANGER: Inhibition of human KINGS-1 cell growth in a cell viability assay.

KNS-81-FD = assay type: functional, cell-based, Homo sapiens; details: Homo sapiens, KNS-81-FD;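 note: growth inhibition of KNS-81-FD cells, read out with a cell viability assay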
Description: SANGER: Inhibition of human KNS-81-FD cell growth in a cell viability assay.

LB2518-MEL = assay type: functional, cell-based; details: Homo sapiens;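 note: growth inhibition of human LB2518-MEL cells, measured with a cell viability assay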
Description: SANGER: Inhibition of human LB2518-MEL cell growth in a cell viability assay.

ML-2 = assay type: functional, cell-based, Homo sapiens; details: Homo sapiens, ML-2;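 note: growth inhibition of ML-2 cells, measured with a cell viability readout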
Description: SANGER: Inhibition of human ML-2 cell growth in a cell viability assay.

MOLT-16 = assay type: functional, cell-based, Homo sapiens; details: Homo sapiens, MOLT-16;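 note: growth inhibition of human MOLT-16 cells, read out with a cell viability assay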
Description: SANGER: Inhibition of human MOLT-16 cell growth in a cell viability assay.

MSTO-211H = assay type: functional, cell-based, Homo sapiens; details: Homo sapiens, MSTO-211H
Description: SANGER: Inhibition of human MSTO-211H cell growth in a cell viability assay.

MZ1-PC = assay type: functional, cell-based, Homo sapiens; details: Homo sapiens, MZ1-PC;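 note: cell viability assay measuring growth inhibition of human MZ1-PC cells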
Description: SANGER: Inhibition of human MZ1-PC cell growth in a cell viability assay.

MZ2-MEL = assay type: functional, cell-based, Homo sapiens; details: Homo sapiens, MZ2-MEL;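 note: growth inhibition of MZ2-MEL cells read out with a cell viability assay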
Description: SANGER: Inhibition of human MZ2-MEL cell growth in a cell viability assay.

NB6 = assay type: functional, cell-based, Homo sapiens; details: Homo sapiens, NB6
Description: SANGER: Inhibition of human NB6 cell growth in a cell viability assay.

NCI-H1155 = assay type: functional, cell-based, Homo sapiens; details: Homo sapiens, NCI-H1155;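 note: cell growth inhibition measured by a viability assay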
Description: SANGER: Inhibition of human NCI-H1155 cell growth in a cell viability assay.

NCI-H1299 = assay type: functional, cell-based; details: Homo sapiens;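 note: growth inhibition of human NCI-H1299 cells, read out by a cell viability assay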
Description: SANGER: Inhibition of human NCI-H1299 cell growth in a cell viability assay.

NCI-H1581 = assay type: functional, cell-based, Homo sapiens; details: Homo sapiens, NCI-H1581;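 note: cell growth inhibition read out by a viability assay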
Description: SANGER: Inhibition of human NCI-H1581 cell growth in a cell viability assay.

NCI-H1838 = assay type: functional, cell-based, Homo sapiens; details: Homo sapiens, NCI-H1838;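 note: growth inhibition of NCI-H1838 cells, determined with a cell viability readout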
Description: SANGER: Inhibition of human NCI-H1838 cell growth in a cell viability assay.

NH-12 = assay type: functional, cell-based, Homo sapiens; details: Homo sapiens, NH-12;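 note: growth inhibition of NH-12 cells, read out with a cell viability assay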
Description: SANGER: Inhibition of human NH-12 cell growth in a cell viability assay.

NMC-G1 = assay type: functional, cell-based, Homo sapiens; details: Homo sapiens, NMC-G1;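 note: growth inhibition of the NMC-G1 cell line, measured with a cell viability read-out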
Description: SANGER: Inhibition of human NMC-G1 cell growth in a cell viability assay.

ONS-76 = assay type: functional, cell-based, Homo sapiens; details: Homo sapiens, ONS-76;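 note: growth inhibition of human ONS-76 cells, read out with a cell viability assay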
Description: SANGER: Inhibition of human ONS-76 cell growth in a cell viability assay.

RH-1 = assay type: functional, cell-based, Homo sapiens; details: Homo sapiens, RH-1;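 note: growth inhibition of human RH-1 cells, read out with a cell viability assay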
Description: SANGER: Inhibition of human RH-1 cell growth in a cell viability assay.

Ramos-2G6-4C10 = assay type: functional, cell-based, Homo sapiens; details: Homo sapiens, Ramos-2G6-4C10;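 note: growth inhibition of the cell line, measured by a cell viability read-out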
Description: SANGER: Inhibition of human Ramos-2G6-4C10 cell growth in a cell viability assay.

SBC-1 = assay type: functional, cell-based, Homo sapiens; details: Homo sapiens, SBC-1;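 note: cell viability assay measuring growth inhibition of the SBC-1 cell line, IC50 being the concentration that halves growth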
Description: SANGER: Inhibition of human SBC-1 cell growth in a cell viability assay.

SF-268 = assay type: functional, cell-based, Homo sapiens; details: Homo sapiens, SF-268;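 note: growth inhibition of SF-268 cells determined with a cell viability assay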
Description: SANGER: Inhibition of human SF268 cell growth in a cell viability assay.

SK-NEP-1 = assay type: functional, cell-based, Homo sapiens; details: Homo sapiens, SK-NEP-1;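 note: growth inhibition of human SK-NEP-1 cells, read out by a cell viability assay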
Description: SANGER: Inhibition of human SK-NEP-1 cell growth in a cell viability assay.

A101D = assay type: functional, cell-based, Homo sapiens; details: Homo sapiens, A101D;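 note: growth inhibition of the cell line, measured with a viability assay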
Description: SANGER: Inhibition of human A101D cell growth in a cell viability assay.

BV-173 = assay type: functional, cell-based, Homo sapiens; details: Homo sapiens, BV-173
Description: SANGER: Inhibition of human BV-173 cell growth in a cell viability assay.

TE-10 = assay type: functional, cell-based, Homo sapiens; details: Homo sapiens, TE-10;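 note: growth inhibition of TE-10 cells, measured by a cell viability assay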
Description: SANGER: Inhibition of human TE-10 cell growth in a cell viability assay.

TE-6 = assay type: functional, cell-based, Homo sapiens; details: Homo sapiens, TE-6;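 note: growth inhibition of TE-6 cells, read out with a cell viability assay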
Description: SANGER: Inhibition of human TE-6 cell growth in a cell viability assay.

TE-9 = assay type: functional, cell-based, Homo sapiens; details: Homo sapiens, TE-9;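 note: cell growth inhibition, measured with a cell viability readout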
Description: SANGER: Inhibition of human TE-9 cell growth in a cell viability assay.

UACC-257 = assay type: functional, cell-based, Homo sapiens; details: Homo sapiens, UACC-257
Description: SANGER: Inhibition of human UACC-257 cell growth in a cell viability assay.

COLO-668 = assay type: functional, cell-based, Homo sapiens; details: Homo sapiens, COLO-668
Description: SANGER: Inhibition of human COLO-668 cell growth in a cell viability assay.

Measured: pIC50

CO[C@@H]1[C@H](N(C)C(=O)c2ccccc2)C[C@H]2O[C@]1(C)n1c3ccccc3c3c4c(c5c6ccccc6n2c5c31)C(=O)NC4 [MIDOSTAURIN]
6.50: GI-1
< 6.29: DOHH-2 | NB69 | NOS-1 | OCI-AML2 | no-11
6.68: NTERA-2-cl-D1

CC1=C(/C=C/C(C)=C/C=C/C(C)=C/C(=O)O)C(C)(C)CCC1 [TRETINOIN]
5.80: BV-173
6.18: SK-NEP-1
5.79: CTB-1
5.27: EM-2
5.40: ML-2
5.32: DB
< 5.00: all other assays above
